{"source": "paper PMC11979885", "about": "“Mechanistic Investigation into the Phase Separation Behavior of Soluplus in the Presence of Biorelevant Media” (Molecular Pharmaceutics, 2025)", "format_in_all_cases": "physicochemical", "key": {"[1]": {"assay": "Equilibrium solubility of crystalline RO6897779 in FaSSIF-V1 with and without Soluplus", "description": "The solubility of RO6897779 was determined in FaSSIF-V1 and in the presence of previously outlined Soluplus concentrations dissolved in FaSSIF-V1 to determine the apparent degree of supersaturation induced during solvent shift experiments. Samples were prepared by adding an excess amount of RO6897779 (≈5 mg) to 3 mL of the excipient solutions, or neat FaSSIF-V1 medium, and were stirred at 250 rpm at 37 °C (Mixdrive 15, 2MAG, München, Germany). Samples were equilibrated for 48 h. Solid–liquid separation was conducted by centrifugation at 11,500 g for 5 min using Ultrafree centrifugal units. The supernatant was immediately diluted with a 1:1 (v/v) mixture of acetonitrile and deionized water to fall into the linear region of the calibration curve during high-performance liquid chromatography (HPLC), as described under HPLC drug quantification below.\n(§1) RO6897779 was quantified using reversed-phase HPLC. An Agilent 1200 series HPLC system (Agilent Technologies Inc., US) equipped with an Agilent Eclipse Plus C18 column (5 μm, 4.6 mm × 150 mm) was used for sample separation. Detection and quantification of RO6897779 were performed by using a variable wavelength detector set to 214 nm. The mobile phase consisted of (A) HPLC-grade deionized water and (B) and acetonitrile both containing 0.1% [v/v] formic acid. […] Data analysis was conducted using Agilent’s OpenLab CDS software Version 2.6."}, "[2]": {"assay": "Solvent shift supersaturation kinetics of RO6897779 in Soluplus solutions in FaSSIF-V1", "conditions": "for apparent degree of supersaturation (aDS) induced: nominal 1 mg mL^–1 drug, FaSSIF-V1, 37 °C", "description": "Solvent shift experiments were conducted in the Pion microDISS Profiler to assess the supersaturation kinetics of RO6897779 in the presence of Soluplus dissolved in FaSSIF-V1. […] Supersaturation kinetics were assessed at D/P ratios of 10, 20, 30, and 40% corresponding to the polymer concentrations outlined previously. The polymer was dissolved in FaSSIF-V1 at RT and subsequently heated to 37 °C. A concentrated DMSO stock solution was prepared at a concentration of 50 mg mL^–1 RO6897779. From this stock solution, an aliquot of 400 μL was spiked into 19.6 mL of preheated solvent shift medium, so that a nominal concentration of 1 mg mL^–1 RO6897779 was obtained without exceeding DMSO concentrations of 2% [v/v], while assuming a negligible residual solvent influence on solubility.[40] The solutions were stirred at 250 rpm and the temperature was maintained at 37 °C and continuously monitored. At time points of 5, 15, 30, 60, 120, 180, and 240 min, 2 × 200 μL aliquots were withdrawn. […] Subsequently, the supernatant of the media was diluted appropriately with an acetonitrile–water mixture. An intermission of 30 min was introduced as a change in Soluplus phase behavior was expected once the sample reached RT. It was assumed that this intermission would lead to a difference in the sampled concentration of RO6897779.\nas §1"}, "[3]": {"assay": "DSC glass forming ability / crystallization tendency classification", "conditions": "classification according to Baird et al.", "description": "The manufactured spray-dried dispersion as well as the neat crystalline drug was investigated in triplicate using DSC to detect the presence of crystalline material and to gain information about the glass transition temperature (Tg) of the materials. For this purpose, a DSC 1 Star system instrument from Mettler-Toledo AG (Greifensee, Switzerland) was used. The instrument was calibrated for temperature and heat flow using indium, and the analysis was performed with an air flow rate of 150 mL min^–1. Samples were weighed into 40 μL aluminum pans (Mettler-Toledo AG, Greifensee, CH), sealed with pierced aluminum lids, and placed into the DSC. The analysis of the spray-dried dispersion was carried out as a heating cycle which heated the sample from RT to 190 °C at 10 K min^–1, followed by cooling down to −50 °C at −20 K min^–1 and finally reheating to 190 °C at 10 K min^–1. The analysis of the neat crystalline drug was carried out according to Baird et al.,[36] to evaluate the glass forming ability of the drug. The second heating ramp was used to measure the Tg without the influence of evaporating moisture."}}, "note": "Read-outs that look alike come from different tables or passages of the source.", "data": [{"smiles": "O=C(OCc1ccc(OC(F)(F)F)cc1)N1C[C@@H]2CN(C(=O)c3ccc4[nH]nnc4c3)C[C@H]2C1", "note": "[RO6897779]", "values": [{"measurement": "solubility at 48 h", "setting": "[1]; FaSSIF-V1, 37 °C, fassif, thermodynamic from solid, Form I, pH = 6.5 ± 0, read-out: solubility in FaSSIF-V1", "value": 22.9, "unit": "µg/mL"}, {"measurement": "solubility at 48 h", "setting": "[1]; FaSSIF-V1 with Soluplus 1.50 mg mL^–1, aqueous with cosolvent or surfactant or cyclodextrin, thermodynamic from solid, FaSSIF-V1, Soluplus 1.50 mg mL^–1 (D/P 40%), 48 h, 37 °C, read-out: solubility", "value": 69, "unit": "µg/mL"}, {"measurement": "solubility at 48 h", "setting": "[1]; FaSSIF-V1 with Soluplus 2.33 mg mL^–1, aqueous with cosolvent or surfactant or cyclodextrin, thermodynamic from solid, FaSSIF-V1, Soluplus 2.33 mg mL^–1 (D/P 30%), 48 h, 37 °C, read-out: solubility", "value": 96.2, "unit": "µg/mL"}, {"measurement": "solubility at 48 h", "setting": "[1]; FaSSIF-V1 with Soluplus 4.00 mg mL^–1, aqueous with cosolvent or surfactant or cyclodextrin, thermodynamic from solid, FaSSIF-V1, Soluplus 4.00 mg mL^–1 (D/P 20%), 48 h, 37 °C, read-out: solubility", "value": 130, "unit": "µg/mL"}, {"measurement": "solubility at 48 h", "setting": "[1]; FaSSIF-V1 with Soluplus 9.00 mg mL^–1, aqueous with cosolvent or surfactant or cyclodextrin, thermodynamic from solid, FaSSIF-V1, Soluplus 9.00 mg mL^–1 (D/P 10%), 48 h, 37 °C, read-out: solubility", "value": 215, "unit": "µg/mL"}, {"measurement": "solubility at 48 h", "setting": "[1]; pH 6.5, thermodynamic from solid, neat FaSSIF-V1, Soluplus 0.00 mg mL^–1 (D/P 100%), 48 h, 37 °C, read-out: solubility", "value": 22.9, "unit": "µg/mL"}, {"measurement": "apparent degree of supersaturation (aDS) induced", "setting": "[2]; D/P 10%", "value": 4.65}, {"measurement": "sampled drug concentration in solvent shift experiment", "setting": "[2]; D/P 20%, FaSSIF-V1, after immediate centrifugation and after cooling to RT", "value": "150–170 μg mL^–1"}, {"measurement": "apparent degree of supersaturation (aDS) induced", "setting": "[2]; D/P 20%", "value": 7.7}, {"measurement": "apparent degree of supersaturation (aDS) induced", "setting": "[2]; D/P 30%", "value": 10.4}, {"measurement": "apparent degree of supersaturation (aDS) induced", "setting": "[2]; D/P 40%", "value": 14.5}, {"measurement": "crystallization tendency", "setting": "[3]", "value": "class III"}]}]}
